Assays:
60 cancer cell lines = assay: NCI-60 one-dose screen (10 μM); type: cell-based; settings: Homo sapiens; one dose of 10 μM, mean over 60 cancer cell lines; read-out: Mean Growth Percent (MGP)
Excerpt: Additionally, the mean of the growth percentages (MGP) of each compound against all the 60 cancer cell lines is also reported, which is used as one of the selection criteria to continue with tests at five concentration doses.

HL-60(TB) = assay: cells; settings: Homo sapiens, HL-60, 48 h; for CC50: read-out: LC50
MOLT-4 = assay: cells; settings: Homo sapiens, MOLT-4, 48 h; for CC50: read-out: LC50
RPMI-8226 = assay: cells; settings: Homo sapiens, RPMI-8226, 48 h; for CC50: read-out: LC50
A549/ATCC = assay: cells; settings: Homo sapiens, A549, 48 h; for CC50: read-out: LC50
HOP-92 = assay: cells; settings: Homo sapiens, HOP-92, 48 h; for CC50: read-out: LC50
NCI-H226 = assay: cells; settings: Homo sapiens, NCI-H226, 48 h; for CC50: read-out: LC50
NCI-H460 = assay: cells; settings: Homo sapiens, NCI-H460, 48 h; for CC50: read-out: LC50
NCI-H522 = assay: cells; settings: Homo sapiens, NCI-H522, 48 h; for CC50: read-out: LC50
COLO 205 = assay: cells; settings: Homo sapiens, COLO 205, 48 h; for CC50: read-out: LC50
HCT-116 = assay: cells; settings: Homo sapiens, HCT-116, 48 h; for CC50: read-out: LC50
HCT-15 = assay: cells; settings: Homo sapiens, HCT-15, 48 h; for CC50: read-out: LC50
HT29 = assay: cells; settings: Homo sapiens, HT-29, 48 h; for CC50: read-out: LC50
KM12 = assay: cells; settings: Homo sapiens, KM12, 48 h; for CC50: read-out: LC50
SF-295 = assay: cells; settings: Homo sapiens, SF-295, 48 h; for CC50: read-out: LC50
SF-539 = assay: cells; settings: Homo sapiens, SF-539, 48 h; for CC50: read-out: LC50, SF-539, 48 h
SNB-75 = assay: cells; settings: Homo sapiens, SNB-75, 48 h; for CC50: read-out: LC50
U251 = assay: cells; settings: Homo sapiens, U-251, 48 h; for GI50: U251, 48 h; for CC50: read-out: LC50
LOX IMVI = assay: cells; settings: Homo sapiens, 48 h
M14 = assay: cells; settings: Homo sapiens, M14, 48 h; for CC50: read-out: LC50
SK-MEL-2 = assay: cells; settings: Homo sapiens, SK-MEL-2, 48 h; for CC50: read-out: LC50
SK-MEL-5 = assay: cells; settings: Homo sapiens, SK-MEL-5, 48 h; for CC50: read-out: LC50
UACC-257 = assay: cells; settings: Homo sapiens, UACC-257, 48 h; for CC50: read-out: LC50
OVCAR-4 = assay: cells; settings: Homo sapiens, OVCAR-4, 48 h; for CC50: read-out: LC50
OVCAR-5 = assay: cells; settings: Homo sapiens, OVCAR-5, 48 h; for CC50: read-out: LC50
SK-OV-3 = assay: cells; settings: Homo sapiens, SK-OV-3, 48 h; for CC50: read-out: LC50
786-0 = assay: cells; settings: Homo sapiens, 786-0, 48 h; for CC50: read-out: LC50
A498 = assay: cells; settings: Homo sapiens, A498, 48 h; for CC50: read-out: LC50
SN12C = assay: cells; settings: Homo sapiens, 48 h; for CC50: read-out: LC50
TK-10 = assay: cells; settings: Homo sapiens, TK-10, 48 h; for CC50: read-out: LC50
UO-31 = assay: cells; settings: Homo sapiens, UO-31, 48 h; for CC50: read-out: LC50
DU-145 = assay: cells; settings: Homo sapiens, DU-145, 48 h; for CC50: read-out: LC50
MCF7 = assay: cells; settings: Homo sapiens, MCF7, 48 h; for CC50: read-out: LC50
MDA-MB-231/ATCC = assay: cells; settings: Homo sapiens, MDA-MB-231, 48 h
T-47D = assay: cells; settings: Homo sapiens, T47D, 48 h; for CC50: read-out: LC50
MDA-MB-468 = assay: cells; settings: Homo sapiens, MDA-MB-468, 48 h; for CC50: read-out: LC50

Nc1nc(N)c2c(n1)NC(c1ccccc1)CC(c1ccc(Nc3nc(NCCO)nc(Nc4ccc(Cl)cc4)n3)cc1)=N2 (centres unmarked) [33a]
activity at 10 µM (60 cancer cell lines): 25.3%
GI50 (HL-60(TB)): 0.32 µM
CC50 (HL-60(TB)): > 100 µM
GI50 (MOLT-4): < 0.01 µM
CC50 (MOLT-4): > 100 µM
GI50 (RPMI-8226): 1.38 µM
CC50 (RPMI-8226): > 100 µM
GI50 (A549/ATCC): 2.84 µM
CC50 (A549/ATCC): > 100 µM
GI50 (HOP-92): 1.42 µM
CC50 (HOP-92): 6.74 µM
GI50 (NCI-H226): 11.5 µM
CC50 (NCI-H226): 85 µM
GI50 (NCI-H460): 1.85 µM
CC50 (NCI-H460): 6.51 µM
GI50 (NCI-H522): 1.79 µM
CC50 (NCI-H522): 6.77 µM
GI50 (COLO 205): 1.79 µM
CC50 (COLO 205): 6.09 µM
GI50 (HCT-116): 1.51 µM
CC50 (HCT-116): 5.33 µM
GI50 (HCT-15): 1.38 µM
CC50 (HCT-15): 5.87 µM
GI50 (HT29): 1.77 µM
CC50 (HT29): 6.28 µM
GI50 (KM12): 1.9 µM
CC50 (KM12): 6.61 µM
GI50 (SF-295): 1.57 µM
CC50 (SF-295): 5.63 µM
GI50 (SF-539): 1.6 µM
CC50 (SF-539): 5.85 µM
GI50 (SNB-75): 1.56 µM
CC50 (SNB-75): 6.29 µM
GI50 (U251): 1.53 µM
CC50 (U251): 5.84 µM
GI50 (LOX IMVI): 1.54 µM
CC50 (LOX IMVI; read-out: LC50, LOX IMVI, 48 h): 5.66 µM
GI50 (M14): 1.84 µM
CC50 (M14): 6.1 µM
GI50 (SK-MEL-2): 1.38 µM
CC50 (SK-MEL-2): 5.6 µM
GI50 (SK-MEL-5): 1.42 µM
CC50 (SK-MEL-5): 5.21 µM
GI50 (UACC-257): 1.9 µM
CC50 (UACC-257): 6.43 µM
GI50 (OVCAR-4): 1.72 µM
CC50 (OVCAR-4): 8.19 µM
GI50 (OVCAR-5): 1.94 µM
CC50 (OVCAR-5): 7.25 µM
GI50 (SK-OV-3): 17.7 µM
CC50 (SK-OV-3): 57.9 µM
GI50 (786-0): 1.63 µM
CC50 (786-0): 5.8 µM
GI50 (A498): 1.54 µM
CC50 (A498): 5.96 µM
GI50 (SN12C): 1.74 µM
CC50 (SN12C): 7.2 µM
GI50 (TK-10): 2.09 µM
CC50 (TK-10): 7.16 µM
GI50 (UO-31): 1.87 µM
CC50 (UO-31): 9.83 µM
GI50 (DU-145): 1.8 µM
CC50 (DU-145): 6.34 µM
GI50 (MCF7): 1.51 µM
CC50 (MCF7): 6.1 µM
GI50 (MDA-MB-231/ATCC): 1.75 µM
CC50 (MDA-MB-231/ATCC; read-out: LC50): 6.94 µM
GI50 (T-47D): 1.52 µM
CC50 (T-47D): 7.29 µM
GI50 (MDA-MB-468): 1.51 µM
CC50 (MDA-MB-468): 5.93 µM

Nc1nc(N)c2c(n1)NC(c1ccc(F)cc1)CC(c1ccc(Nc3nc(NCCO)nc(Nc4ccc(Cl)cc4)n3)cc1)=N2 (centres unmarked) [33f]
activity at 10 µM (60 cancer cell lines): -3.41%
GI50 (HL-60(TB)): 0.863 µM
CC50 (HL-60(TB)): > 100 µM
GI50 (MOLT-4): 0.532 µM
CC50 (MOLT-4): > 100 µM
GI50 (RPMI-8226): 1.01 µM
CC50 (RPMI-8226): > 100 µM
GI50 (A549/ATCC): 3.12 µM
CC50 (A549/ATCC): > 100 µM
GI50 (HOP-92): 1.25 µM
CC50 (HOP-92): 10.2 µM
GI50 (NCI-H226): 2.49 µM
CC50 (NCI-H226): 37.9 µM
GI50 (NCI-H460): 1.71 µM
CC50 (NCI-H460): 7.73 µM
GI50 (NCI-H522): 1.43 µM
CC50 (NCI-H522): 6.16 µM
GI50 (COLO 205): 1.49 µM
CC50 (COLO 205): 5.8 µM
GI50 (HCT-116): 1.2 µM
CC50 (HCT-116): 5.23 µM
GI50 (HCT-15): 1.03 µM
CC50 (HCT-15): 7.87 µM
GI50 (HT29): 1.42 µM
CC50 (HT29): 7.01 µM
GI50 (KM12): 1.68 µM
CC50 (KM12): 8.22 µM
GI50 (SF-295): 1.96 µM
CC50 (SF-295): 7.15 µM
GI50 (SF-539): 1.56 µM
CC50 (SF-539): 6.36 µM
GI50 (SNB-75): 3.35 µM
CC50 (SNB-75): 45.4 µM
GI50 (U251): 1.37 µM
CC50 (U251): 5.43 µM
GI50 (LOX IMVI): 1.52 µM
GI50 (M14): 1.66 µM
CC50 (M14): 6.58 µM
GI50 (SK-MEL-2): 1.67 µM
CC50 (SK-MEL-2): 5.75 µM
GI50 (SK-MEL-5): 1.46 µM
CC50 (SK-MEL-5): 5.3 µM
GI50 (UACC-257): 1.85 µM
CC50 (UACC-257): 6.69 µM
GI50 (OVCAR-4): 1.93 µM
CC50 (OVCAR-4): > 100 µM
GI50 (OVCAR-5): 5.1 µM
CC50 (OVCAR-5): > 100 µM
GI50 (SK-OV-3): 12.9 µM
CC50 (SK-OV-3): 50.5 µM
GI50 (786-0): 1.36 µM
CC50 (786-0): 7.12 µM
GI50 (A498): 3.72 µM
CC50 (A498): 39.1 µM
GI50 (SN12C): 2.08 µM
CC50 (SN12C): > 100 µM
GI50 (TK-10): 4.61 µM
CC50 (TK-10): 45.5 µM
GI50 (UO-31): 3.07 µM
CC50 (UO-31): > 100 µM
GI50 (DU-145): 1.75 µM
CC50 (DU-145): 7 µM
GI50 (MCF7): 0.956 µM
CC50 (MCF7): 6 µM
GI50 (MDA-MB-231/ATCC): 1.78 µM
GI50 (T-47D): 1.27 µM
CC50 (T-47D): 8.09 µM
GI50 (MDA-MB-468): 1.48 µM
CC50 (MDA-MB-468): 6.7 µM

From article PMC11012124, “Synthesis of Novel Triazine-Based Chalcones and 8,9-dihydro-7H-pyrimido[4,5-b][1,4]diazepines as Potential Leads in the Search of Anticancer, Antibacterial and Antifungal Agents” (International Journal of Molecular Sciences, 2024)
